Source: article PMC12799421, “Inhibition of constitutive activity of the atypical chemokine receptor 3 by the small-molecule inverse agonist VUF16840” (Molecular Pharmacology, 2025)

Experiments:
[1] = target: T1, ACKR3 (Homo sapiens, UniProt P25106); assay: BRET GRK2 recruitment to ACKR3 in HEK293T cells; format: cell-based; settings: for EC50: * VUF16840 as inverse agonist, read-out: GRK2 BRET pEC50 (converted)
T1 construct: expressed in transfected cells; host or cells: HEK293T
Experimental: (§1) For bioluminescence resonance energy transfer (BRET) experiments, several BRET acceptor constructs were used that consist of the pcDEF3 vector with either GRK2 (NCBI: NM_174710.2), β-arrestin1 (NCBI: NM_174243.3), or β-arrestin2 (NCBI: XM_005220181.4) fused at the C-terminus with a SpeI/NotI linker to mVenus (NCBI: KP666136.1), as previously described.[34]
(§2) For 1·10^6 HEK293T cells, a transfection mix consisting of 2 μg plasmid DNA, 12 μg linear PEI in a total volume of 200 μL 150 mM NaCl was made and thoroughly vortexed. The transfection mix was incubated for 15 minutes and consequently added to a cell suspension with a final concentration of 3·10^5 cells/mL. For functional studies this cell suspension was immediately transferred to a poly-L-lysine-coated white 96-well plate, with 3·10^4 cells per well. […] For BRET-based membrane localization experiments, the 2 μg plasmid DNA consisted of ACKR3-NL (0.05 μg), mVenus-CAAX (0.25 μg), and pcDEF3 vector DNA without insert (1.7 μg).
The sigmoidal concentration-dependent displacement of binding of the probes [^3H]VUF15485 and CXCL12-A647 by unlabeled ligands were analyzed using GraphPad Prism 8, by fitting a one-site binding model to the data, to determine the pIC50. Mean pIC50 values were determined by averaging fitted values from individual experiments. Graphs depict the pooled data of all experiments. Similarly, sigmoidal, ligand-induced concentration-dependent activation or inhibition of the proximity between ACKR3 and the protein of interest was analyzed using GraphPad Prism 8, by fitting a 3-parameter concentration-response model to the data, to determine pEC50/pIC50 values. Mean pEC50 values and pIC50 values were determined by averaging fitted values from individual experiments. […]
Fig. 5 Inhibition of both constitutive as well as agonist-induced ACKR3 activity by VUF16840. […] The resulting proximity between ACKR3 and β-arrestin1 (A, E), GRK2 (B, F), or Rab5a (C, G) was determined by bioluminescence resonance energy transfer. […]

[2] = target: T2, NLuc-hACKR3 (Homo sapiens, UniProt P25106); assay: NanoBRET ligand binding assay (CXCL12-AF647 displacement); settings: 0.3 nM CXCL12-AF647, HEK293T membranes; read-out: IC50, displacement of CXCL12-A647 binding to NLuc-hACKR3
T2 construct: expressed in transfected cells; host or cells: HEK293T (membranes, transient expression)
T2 sequence (P25106 whole entry): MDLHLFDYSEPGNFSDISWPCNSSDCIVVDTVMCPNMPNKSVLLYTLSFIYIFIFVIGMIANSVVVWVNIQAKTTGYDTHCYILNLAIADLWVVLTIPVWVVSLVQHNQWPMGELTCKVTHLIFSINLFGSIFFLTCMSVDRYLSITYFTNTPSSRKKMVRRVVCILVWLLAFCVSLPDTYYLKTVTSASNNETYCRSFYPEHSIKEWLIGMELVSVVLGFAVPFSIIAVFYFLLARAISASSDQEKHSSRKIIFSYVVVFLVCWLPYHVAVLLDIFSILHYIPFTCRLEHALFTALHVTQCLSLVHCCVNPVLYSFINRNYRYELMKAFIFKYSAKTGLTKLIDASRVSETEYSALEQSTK
Experimental: Membranes of HEK293T cells that transiently expressed the NLuc-hACKR3 or HA-hACKR3 were produced as previously described.[23] Briefly, 2 million HEK293T cells were seeded per […] and were transfected the following day using a DNA/PEI-mix containing 0.25 μg plasmid DNA encoding for the ACKR3, 4.75 μg pcDEF3 plasmid DNA and 30 μg linear PEI. Two days after transfection, cells were collected in PBS (137 mM NaCl, 2.57 mM KCl, 1.5 mM KH2PO4, 8 mM Na2HPO4) and pelleted by centrifugation. Cell pellets were resuspended in ice-cold membrane buffer (15 mM Tris, 0.3 mM EDTA, 2 mM MgCl2, pH 7.4 at 4 °C) and dounce-homogenized on ice by plunging the pestle 10 times with 1500 rpm. […]
All dilutions were prepared in HBSS supplemented with 0.2% BSA. […] Total light intensity was measured at 460 nm wavelength with 80 nm bandwidth and separately for wavelengths ≥610 nm using the PHERAstar-FSX (BMG Labtech) with a dual emission filter. […]
The sigmoidal concentration-dependent displacement of binding of the probes [^3H]VUF15485 and CXCL12-A647 by unlabeled ligands were analyzed using GraphPad Prism 8, by fitting a one-site binding model to the data, to determine the pIC50. Mean pIC50 values were determined by averaging fitted values from individual experiments. […] Mean pEC50 values and pIC50 values were determined by averaging fitted values from individual experiments. […]

[3] = target: T1, ACKR3; assay: BRET β-arrestin2 recruitment to hACKR3 in HEK293T cells; format: cell-based; settings: for EC50: * VUF16840 as inverse agonist, mean ± SD (N), read-out: β-arrestin2 BRET pEC50 (converted)
Experimental: as §1, §2
Mean pIC50 values were determined by averaging fitted values from individual experiments. Graphs depict the pooled data of all experiments. Similarly, sigmoidal, ligand-induced concentration-dependent activation or inhibition of the proximity between ACKR3 and the protein of interest was analyzed using GraphPad Prism 8, by fitting a 3-parameter concentration-response model to the data, to determine pEC50/pIC50 values. Mean pEC50 values and pIC50 values were determined by averaging fitted values from individual experiments. Graphs depict the pooled data of all experiments, for which values are normalized, per experiment, to the fold difference compared with basal signal.

T1 sequence (P25106 whole entry): as above

Row | EC50 [1] [nM] | IC50 ([1]; versus 100 nM VUF15485, read-out: GRK2 BRET, Inhibition by VUF16840 (pIC50) (converted)) [nM] | IC50 [2] [nM] | EC50 [3] [nM] | IC50 ([3]; constitutive, no agonist, read-out: IC50, reduction of β-arrestin2 recruitment to hACKR3 (BRET)) [nM] | IC50 ([3]; versus 100 nM CXCL11, read-out: β-arrestin2 BRET, Inhibition by VUF16840 (pIC50) (converted)) [nM] | IC50 ([3]; versus 100 nM CXCL12, read-out: β-arrestin2 BRET, Inhibition by VUF16840 (pIC50) (converted)) [nM] | IC50 ([3]; versus 100 nM VUF15485, read-out: β-arrestin2 BRET, Inhibition by VUF16840 (pIC50) (converted)) [nM] | SMILES
1 | 3.16 | 3.98 | 7 | 10 | 10 | 2 | 2.51 | 10 | COc1ccccc1CCNC(=O)C1CN(C2CCCCC2)CCC1NC(=O)c1cc(-c2ccc(F)cc2F)on1 (centres unmarked) [VUF16840]
2 | 25.1 |  | 28 | 12.6 |  |  |  |  | COc1cc(C(=O)N(CCC2CCCN2C)CC(C)=Cc2ccccc2F)cc(OC)c1OC (centres unmarked) [VUF15485, reference compound]
